In ChEMBL document CHEMBL1201862, “PubChem BioAssay data set” (2004):
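Where inhibition never reached the appropriate level, the endpoint shown equals the highest concentration tested. Otherwise, values were interpolated linearly from a five-concentration, 48-hour dose response in 96-well plates. At the GI50, growth is halved.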 Active and inactive are the calls of the source. Cut-off read from the data, not from the text of the source: active = GI50 up to about 1.1 µM and inactive = higher.

Columns and labels:
Test in all cases: NCI-60 cell line screen, 48 h
DMS-273 = system: DMS-273
SF-539 = system: SF-539
HL-60 = system: HL-60
HCT-116 = system: HCT-116
OVCAR-4 = system: OVCAR-4
HCC 2998 = system: HCC 2998
M14 = system: M14
IGROV-1 = system: IGROV-1
EKVX = system: EKVX
HT-29 = system: HT-29
KM12 = system: KM12
M19-MEL = system: M19-MEL
K562 = system: K562
OVCAR-8 = system: OVCAR-8
SNB-19 = system: SNB-19
NCI-H522 = system: NCI-H522
SNB-75 = system: SNB-75
RPMI-8226 = system: RPMI-8226
LOX IMVI = system: LOX IMVI
KM-20L2 = system: KM-20L2
MOLT-4 = system: MOLT-4
786-0 = system: 786-0
SW-620 = system: SW-620
SK-OV-3 = system: SK-OV-3
HOP-62 = system: HOP-62
U-251 = system: U-251
SNB-78 = system: SNB-78
SF-268 = system: SF-268
SK-MEL-28 = system: SK-MEL-28
DMS-114 = system: DMS-114
TK-10 = system: TK-10
COLO 205 = system: COLO 205
CCRF-CEM = system: CCRF-CEM
LXFL 529 = system: LXFL 529
NCI-H23 = system: NCI-H23
XF498 = system: XF498
OVCAR-3 = system: OVCAR-3
A549 = system: A549
NCI-H226 = system: NCI-H226
RXF 393 = system: RXF 393
UACC-62 = system: UACC-62
SK-MEL-5 = system: SK-MEL-5
SF-295 = system: SF-295
DLD-1 = system: DLD-1
NCI-H460 = system: NCI-H460
SN12C = system: SN12C
HOP-18 = system: HOP-18
UO-31 = system: UO-31
HCT-15 = system: HCT-15
SR = system: SR
HOP-92 = system: HOP-92
UACC-257 = system: UACC-257
A498 = system: A498
ACHN = system: ACHN
OVCAR-5 = system: OVCAR-5
CAKI-1 = system: CAKI-1
Malme-3M = system: Malme-3M
SK-MEL-2 = system: SK-MEL-2

SMILES: O=[PH](O)c1cc2c3ccccc3ccc2c2ccccc12
- GI50 (DMS-273): > 100 µM (inactive)
- GI50 (SF-539): > 100 µM (inactive)
- GI50 (HL-60): > 100 µM (inactive)
- GI50 (HCT-116): > 100 µM (inactive)
- GI50 (OVCAR-4): > 100 µM (inactive)
- GI50 (HCC 2998): > 100 µM (inactive)
- GI50 (M14): > 100 µM (inactive)
- GI50 (IGROV-1): > 100 µM (inactive)
- GI50 (EKVX): > 100 µM (inactive)
- GI50 (HT-29): > 100 µM (inactive)
- GI50 (KM12): > 100 µM (inactive)
- GI50 (M19-MEL): > 100 µM (inactive)
- GI50 (K562): > 100 µM (inactive)
- GI50 (OVCAR-8): > 100 µM (inactive)
- GI50 (SNB-19): > 100 µM (inactive)
- GI50 (NCI-H522): > 100 µM (inactive)
- GI50 (SNB-75): > 100 µM (inactive)
- GI50 (RPMI-8226): > 100 µM (inactive)
- GI50 (LOX IMVI): > 100 µM (inactive)
- GI50 (KM-20L2): > 100 µM (inactive)
- GI50 (MOLT-4): > 100 µM (inactive)
- GI50 (786-0): > 100 µM (inactive)
- GI50 (SW-620): > 100 µM (inactive)
- GI50 (SK-OV-3): > 100 µM (inactive)
- GI50 (HOP-62): > 100 µM (inactive)
- GI50 (U-251): > 100 µM (inactive)
- GI50 (SNB-78): > 100 µM (inactive)
- GI50 (SF-268): > 100 µM (inactive)
- GI50 (SK-MEL-28): > 100 µM (inactive)
- GI50 (DMS-114): > 100 µM (inactive)
- GI50 (TK-10): > 100 µM (inactive)
- GI50 (COLO 205): > 100 µM (inactive)
- GI50 (CCRF-CEM): > 100 µM (inactive)
- GI50 (LXFL 529): > 100 µM (inactive)
- GI50 (NCI-H23): > 100 µM (inactive)
- GI50 (XF498): 67.3 µM (inactive)
- GI50 (OVCAR-3): > 100 µM (inactive)
- GI50 (A549): > 100 µM (inactive)
- GI50 (NCI-H226): 13.9 µM (inactive)
- GI50 (RXF 393): > 100 µM (inactive)
- GI50 (UACC-62): > 100 µM (inactive)
- GI50 (SK-MEL-5): > 100 µM (inactive)
- GI50 (SF-295): > 100 µM (inactive)
- GI50 (DLD-1): > 100 µM (inactive)
- GI50 (NCI-H460): > 100 µM (inactive)
- GI50 (SN12C): > 100 µM (inactive)
- GI50 (HOP-18): > 100 µM (inactive)

SMILES: Cc1nc2c3c(ccc2nc1O)C(=O)c1ccccc1C3=O
- GI50 (SF-539): 40.8 µM (inactive)
- GI50 (HL-60): > 100 µM (inactive)
- GI50 (HCT-116): 40 µM (inactive)
- GI50 (OVCAR-4): > 100 µM (inactive)
- GI50 (HCC 2998): > 100 µM (inactive)
- GI50 (M14): > 100 µM (inactive)
- GI50 (IGROV-1): 42.9 µM (inactive)
- GI50 (EKVX): 23.1 µM (inactive)
- GI50 (HT-29): > 100 µM (inactive)
- GI50 (KM12): 32.2 µM (inactive)
- GI50 (M19-MEL): > 100 µM (inactive)
- GI50 (K562): > 100 µM (inactive)
- GI50 (OVCAR-8): 80 µM (inactive)
- GI50 (SNB-19): > 100 µM (inactive)
- GI50 (UO-31): 6.15 µM (inactive)
- GI50 (NCI-H522): 7.18 µM (inactive)
- GI50 (SNB-75): 15.6 µM (inactive)
- GI50 (HCT-15): 48 µM
- GI50 (LOX IMVI): 41.6 µM (inactive)
- GI50 (KM-20L2): > 100 µM (inactive)
- GI50 (SR): > 100 µM (inactive)
- GI50 (786-0): > 100 µM (inactive)
- GI50 (SW-620): 56.2 µM (inactive)
- GI50 (SK-OV-3): 24.5 µM (inactive)
- GI50 (HOP-62): 40.4 µM (inactive)
- GI50 (U-251): 54.1 µM (inactive)
- GI50 (SF-268): 15.6 µM (inactive)
- GI50 (HOP-92): 96.2 µM (inactive)
- GI50 (UACC-257): > 100 µM (inactive)
- GI50 (SK-MEL-28): > 100 µM (inactive)
- GI50 (A498): 20.3 µM (inactive)
- GI50 (DMS-114): 44.8 µM (inactive)
- GI50 (TK-10): > 100 µM (inactive)
- GI50 (COLO 205): > 100 µM (inactive)
- GI50 (LXFL 529): 70 µM (inactive)
- GI50 (NCI-H23): 66.7 µM (inactive)
- GI50 (ACHN): 24.4 µM (inactive)
- GI50 (XF498): > 100 µM (inactive)
- GI50 (OVCAR-3): > 100 µM (inactive)
- GI50 (A549): 52 µM (inactive)
- GI50 (NCI-H226): 29.2 µM (inactive)
- GI50 (RXF 393): 13.1 µM (inactive)
- GI50 (OVCAR-5): > 100 µM (inactive)
- GI50 (UACC-62): 55.3 µM (inactive)
- GI50 (SK-MEL-5): > 100 µM (inactive)
- GI50 (SF-295): > 100 µM (inactive)
- GI50 (DLD-1): 31.8 µM (inactive)
- GI50 (NCI-H460): 37.2 µM (inactive)
- GI50 (SN12C): 42.2 µM (inactive)
- GI50 (CAKI-1): 25.3 µM (inactive)
- GI50 (HOP-18): 66.7 µM (inactive)
- GI50 (Malme-3M): > 100 µM (inactive)

SMILES: CCCCCCCCCCCCCCNCC(OCC)OCC
- GI50 (SF-539): 16.1 µM (inactive)
- GI50 (HL-60): 2.85 µM (inactive)
- GI50 (HCT-116): 11.1 µM (inactive)
- GI50 (OVCAR-4): 13.6 µM (inactive)
- GI50 (HCC 2998): 13.4 µM (inactive)
- GI50 (M14): 14.1 µM (inactive)
- GI50 (IGROV-1): 15.2 µM (inactive)
- GI50 (EKVX): 17.7 µM (inactive)
- GI50 (HT-29): 2.86 µM (inactive)
- GI50 (KM12): 10.3 µM (inactive)
- GI50 (M19-MEL): 16.2 µM (inactive)
- GI50 (OVCAR-8): 18.5 µM (inactive)
- GI50 (SNB-19): 16.5 µM (inactive)
- GI50 (UO-31): 10.7 µM (inactive)
- GI50 (NCI-H522): 3.66 µM (inactive)
- GI50 (SNB-75): 10.4 µM (inactive)
- GI50 (SK-MEL-2): 14.5 µM (inactive)
- GI50 (HCT-15): 8.47 µM
- GI50 (LOX IMVI): 16.3 µM (inactive)
- GI50 (KM-20L2): 10.9 µM (inactive)
- GI50 (786-0): 16.9 µM (inactive)
- GI50 (SW-620): 15.3 µM (inactive)
- GI50 (SK-OV-3): 18.6 µM (inactive)
- GI50 (HOP-62): 16.5 µM (inactive)
- GI50 (U-251): 15.1 µM (inactive)
- GI50 (SNB-78): 16.8 µM (inactive)
- GI50 (SF-268): 17.3 µM (inactive)
- GI50 (HOP-92): 11.5 µM (inactive)
- GI50 (UACC-257): 16.7 µM (inactive)
- GI50 (SK-MEL-28): 16.9 µM (inactive)
- GI50 (A498): 14.4 µM (inactive)
- GI50 (DMS-114): 12.1 µM (inactive)
- GI50 (TK-10): 17.4 µM (inactive)
- GI50 (COLO 205): 14.4 µM (inactive)
- GI50 (CCRF-CEM): 4.84 µM (inactive)
- GI50 (LXFL 529): 15.1 µM (inactive)
- GI50 (NCI-H23): 16.1 µM (inactive)
- GI50 (ACHN): 12.6 µM (inactive)
- GI50 (XF498): 13.6 µM (inactive)
- GI50 (OVCAR-3): 18.3 µM (inactive)
- GI50 (A549): 19.4 µM (inactive)
- GI50 (NCI-H226): 18.4 µM (inactive)
- GI50 (RXF 393): 10.2 µM (inactive)
- GI50 (OVCAR-5): 15.3 µM (inactive)
- GI50 (UACC-62): 18.1 µM (inactive)
- GI50 (SK-MEL-5): 13.9 µM (inactive)
- GI50 (SF-295): 16.7 µM (inactive)
- GI50 (DLD-1): 13.7 µM (inactive)
- GI50 (NCI-H460): 17.1 µM (inactive)
- GI50 (SN12C): 13.7 µM (inactive)
- GI50 (HOP-18): 16.6 µM (inactive)
- GI50 (Malme-3M): 17.1 µM (inactive)
